The IC50 is the concentration needed to halve the response being measured.

Holding throughout (type): biochemical
Assay [1] concerns the target T1, MMP2 (Homo sapiens, UniProt P08253).
T1 construct: purchased Enzo Life Sciences, Inc. BML-AK408
Briefly: MMP-2 colorimetric inhibition assay (Enzo kit). The settings on record: colorimetric thiopeptide substrate, absorbance 415 nm; read-out: MMP2 IC50 class. Here is the method: (§1) The inhibitory activities of the compounds of the invention were assessed in 96-well microplate format using MMP1, MMP2, MMP9 and MMP13 colorimetric assay kits and TACE fluorometric assay kit from Enzo Life Sciences, Inc. The inhibitory effect of the compounds of the invention on ADAM10 activity were evaluated in 96-well microplate format using fluorometric assay from AnaSpec, Inc.
The MMP-2 Colorimetric Drug Discovery Kit (catalog #BML-AK408) is a complete assay system designed to screen MMP-2 inhibitors using a thiopeptide as a chromogenic substrate (Ac-PLG-[2-mercapto-4-methylpentanoyl]-LG-OC2H5). The MMP cleavage site peptide bond is replaced by a thioester bond in the thiopeptide. Hydrolysis of this bond by an MMP produces a sulfhydryl group, which reacts with DTNB [5,5′-dithiobis(2-nitrobenzoic acid), Ellman's reagent] to form 2-nitro-5-thiobenzoic acid, that can be detected spectrophotometrically.
(§2) The inhibitory activities of the compounds of the invention against MMP1, MMP2, MMP9 and MMP13 were tested according to the manufacturer's assay protocols and the absorbance at 415 nm was monitored using the Tecan Infinite® 200 Pro F Nano^+ microplate reader.
(§3) The normalized values were analyzed using GraphPadPrism 9 for Windows (GraphPad Software, San Diego, CA, USA) software by plotting inhibition curves and determining the IC50 values.
(§4) The calculated IC50 values were divided into the following classes: • A: <50 nM; B: 50-1000 nM; C: >1000-10,000 nM; D: >10,000 nM

Assay [2] addresses T2, MMP9 (Homo sapiens, UniProt P14780).
T2 construct: purchased Enzo Life Sciences, Inc. BML-AK410
Description: MMP-9 colorimetric inhibition assay (Enzo kit). The settings on record: colorimetric thiopeptide substrate, absorbance 415 nm; read-out: MMP9 IC50 class. As for the experimental part:
as §1
The MMP-9 Colorimetric Drug Discovery Kit (catalog #BML-AK410) is a complete assay system designed to screen inhibitors of matrix metalloproteinase-9 using a thiopeptide as a chromogenic substrate (Ac-PLG-[2-mercapto-4-methylpentanoyl]-LG-OC2H5). The MMP cleavage site peptide bond is replaced by a thioester bond in the thiopeptide. Hydrolysis of this bond by an MMP produces a sulfhydryl group, which reacts with DTNB [5,5′-dithiobis(2-nitrobenzoic acid), Ellman's reagent] to form 2-nitro-5-thiobenzoic acid, that can be detected spectrophotometrically.
as §2, §3, §4

Assay [3] addresses T3, MMP13 (Homo sapiens, UniProt P45452).
T3 construct: purchased Enzo Life Sciences, Inc. BML-AK412
Description: MMP-13 colorimetric inhibition assay (Enzo kit). The settings on record: colorimetric thiopeptide substrate, absorbance 415 nm; read-out: MMP13 IC50 class. Here is the method: as §1
The MMP-13 Colorimetric Drug Discovery Kit (catalog #BML-AK412) is a complete assay system designed to screen inhibitors of matrix metalloproteinase-13 using a thiopeptide as a chromogenic substrate (Ac-PLG-[2-mercapto-4-methylpentanoyl]-LG-OC2H5). The MMP cleavage site peptide bond is replaced by a thioester bond in the thiopeptide. Hydrolysis of this bond by an MMP produces a sulfhydryl group, which reacts with DTNB [5,5′-dithiobis(2-nitrobenzoic acid), Ellman's reagent] to form 2-nitro-5-thiobenzoic acid, that can be detected spectrophotometrically.
as §2, §3, §4

T2 sequence (P14780 94-707): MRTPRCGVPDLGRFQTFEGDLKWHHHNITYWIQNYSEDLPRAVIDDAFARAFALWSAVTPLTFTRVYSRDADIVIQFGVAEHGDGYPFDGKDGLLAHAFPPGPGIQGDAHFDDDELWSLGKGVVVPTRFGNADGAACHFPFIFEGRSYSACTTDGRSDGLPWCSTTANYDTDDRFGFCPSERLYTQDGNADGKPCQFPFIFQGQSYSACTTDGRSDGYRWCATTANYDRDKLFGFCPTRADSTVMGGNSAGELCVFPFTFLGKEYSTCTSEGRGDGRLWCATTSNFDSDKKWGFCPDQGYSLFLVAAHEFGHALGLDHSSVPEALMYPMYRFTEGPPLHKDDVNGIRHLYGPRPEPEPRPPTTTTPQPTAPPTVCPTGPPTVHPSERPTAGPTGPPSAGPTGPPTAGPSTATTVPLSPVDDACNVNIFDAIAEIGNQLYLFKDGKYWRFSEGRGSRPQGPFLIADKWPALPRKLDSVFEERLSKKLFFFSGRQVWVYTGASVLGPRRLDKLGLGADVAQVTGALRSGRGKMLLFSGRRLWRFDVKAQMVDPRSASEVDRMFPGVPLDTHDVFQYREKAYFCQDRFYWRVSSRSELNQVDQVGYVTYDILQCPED
T1 sequence (P08253 110-452 limits assumed): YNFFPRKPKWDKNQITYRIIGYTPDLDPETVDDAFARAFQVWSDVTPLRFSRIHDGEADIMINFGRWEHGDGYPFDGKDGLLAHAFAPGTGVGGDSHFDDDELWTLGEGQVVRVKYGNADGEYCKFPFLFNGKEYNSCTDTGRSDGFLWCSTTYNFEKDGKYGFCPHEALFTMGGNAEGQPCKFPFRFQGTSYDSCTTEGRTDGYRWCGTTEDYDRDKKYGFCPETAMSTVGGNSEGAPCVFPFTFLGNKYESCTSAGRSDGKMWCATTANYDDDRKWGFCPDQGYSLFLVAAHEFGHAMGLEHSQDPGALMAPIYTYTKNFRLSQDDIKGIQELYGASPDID

In the case of `COCCOC(=O)N1CC2CCC(C(=O)NO)(C1)N2S(=O)(=O)c1cc(F)c(Oc2ccc(Cl)cc2)c(F)c1` (centres unmarked) [Example 1, 2-methoxyethyl 8-((4-(4-chlorophenoxy)-3,5-difluorophenyl)sulfonyl)-1-(hydroxycarbamoyl)-3,8-diazabicyclo[3.2.1]octane-3-carboxylate], the IC50 in assay [1] lay in the range of 0.05 to 1 µM.

Take `COCCOC(=O)N1CC2CCC(C(=O)NO)(C1)N2S(=O)(=O)c1cc(F)c(Oc2ccc(F)cc2)c(F)c1` (centres unmarked) [Example 2, 2-Methoxyethyl 8-((3,5-difluoro-4-(4-fluorophenoxy)phenyl)sulfonyl)-1-(hydroxy-carbamoyl)-3,8-diazabicyclo[3.2.1]octane-3-carboxylate]: the results for the 50% inhibitory concentration (IC50) in assay [1], in assay [2] and in assay [3] were 0.05 to 1 µM, 0.05 to 1 µM and 1 to 10 µM, respectively.

As to `O=C(c1ccncc1)N1CC2CCC(C(=O)NO)(C1)N2S(=O)(=O)c1cc(F)c(Oc2ccc(Cl)cc2)c(F)c1` (centres unmarked) [Example 3, 8-((4-(4-chlorophenoxy)-3,5-difluorophenyl)sulfonyl)-N-hydroxy-3-isonicotinoyl-3,8-diazabicyclo[3.2.1]octane-1-carboxamide], the IC50 is 0.05 to 1 µM in assay [1] and 1 to 10 µM in assay [2].

Take `O=C(CN1CCOCC1)N1CC2CCC(C(=O)NO)(C1)N2S(=O)(=O)c1cc(F)c(Oc2ccc(Cl)cc2)c(F)c1` (centres unmarked) [Example 4, 8-((4-(4-chlorophenoxy)-3,5-difluorophenyl)sulfonyl)-N-hydroxy-3-(2-morpholinoacetyl)-3,8-diazabicyclo[3.2.1]octane-1-carboxamide]: the IC50 was 0.05 to 1 µM in assay [1], 0.05 to 1 µM in assay [2] and 1 to 10 µM in assay [3].

For the compound `O=C(N1CCCCC1)N1CC2CCC(C(=O)NO)(C1)N2S(=O)(=O)c1cc(F)c(Oc2ccc(Cl)cc2)c(F)c1` (centres unmarked) [Example 6, 8-((4-(4-chlorophenoxy)-3,5-difluorophenyl)sulfonyl)-N-hydroxy-3-(piperidine-1-carbonyl)-3,8-diazabicyclo[3.2.1]octane-1-carboxamide], the IC50 in assay [1] and in assay [2] was 0.05 to 1 µM throughout.

Take `O=C(CN1CCCCC1)N1CC2CCC(C(=O)NO)(C1)N2S(=O)(=O)c1cc(F)c(Oc2ccc(Cl)cc2)c(F)c1` (centres unmarked) [Example 7, 8-((4-(4-chlorophenoxy)-3,5-difluorophenyl)sulfonyl)-N-hydroxy-3-(2-(piperidin-1-yl)acetyl)-3,8-diazabicyclo[3.2.1]octane-1-carboxamide]: the IC50 in assay [1] lay within 0.05 to 1 µM; in assay [2] it was 1 to 10 µM; in assay [3], 1 to 10 µM.

As for `COCCOC(=O)N1CC2CCC(C(=O)NO)(C1)N2S(=O)(=O)c1ccc(-c2cccc(F)c2)nc1` (centres unmarked) [Example 9, 2-methoxyethyl 8-((6-(3-fluorophenyl)pyridin-3-yl)sulfonyl)-1-(hydroxycarbamoyl)-3,8-diazabicyclo[3.2.1]octane-3-carboxylate], the IC50 lay in the range of 0.05 to 1 µM in assay [1], 1 to 10 µM in assay [2] and 1 to 10 µM in assay [3].

On to `COCCOC(=O)N1CC2CCC(C(=O)NO)(C1)N2S(=O)(=O)c1ccc(OCc2ccc(F)cc2Cl)cc1` (centres unmarked) [Example 15, 2-methoxyethyl 8-((4-((2-chloro-4-fluorobenzyl)oxy)phenyl)sulfonyl)-1-(hydroxycarbamoyl)-3,8-diazabicyclo[3.2.1]octane-3-carboxylate], for which the IC50 in assay [1] was over 10 µM; in assay [2], 1 to 10 µM; in assay [3], 1 to 10 µM.

Consider `COCCOC(=O)N1CC2CCC(C(=O)NO)(C1)N2S(=O)(=O)c1ccc(NC(=O)c2ccc(OC)cc2)cc1` (centres unmarked) [Example 17, 2-methoxyethyl 1-(hydroxycarbamoyl)-8-((4-(4-methoxybenzamido)phenyl)sulfonyl)-3,8-diazabicyclo[3.2.1]octane-3-carboxylate], for which the IC50 in assay [1], in assay [2] and in assay [3] was 0.05 to 1 µM throughout.

As for `COCCOC(=O)N1CC2CCC(C(=O)NO)(C1)N2S(=O)(=O)c1ccc(Oc2ccc(C#N)cc2)nc1` (centres unmarked) [Example 18, 2-methoxyethyl 8-((6-(4-cyanophenoxy)pyridin-3-yl)sulfonyl)-1-(hydroxycarbamoyl)-3,8-diazabicyclo[3.2.1]octane-3-carboxylate], the IC50 in assay [1], in assay [2] and in assay [3] was 0.05 to 1 µM throughout.

For `O=C(Cc1ccncc1)N1CC2CCC(C(=O)NO)(C1)N2S(=O)(=O)c1cc(F)c(Oc2ccc(Cl)cc2)c(F)c1` (centres unmarked) [Example 23, 8-((4-(4-chlorophenoxy)-3,5-difluorophenyl)sulfonyl)-N-hydroxy-3-(2-(pyridin-4-yl)acetyl)-3,8-diazabicyclo[3.2.1]octane-1-carboxamide], the IC50 in assay [1] and in assay [2] was 0.05 to 1 µM throughout.

In the case of `O=C(N1CCOCC1)N1CC2CCC(C(=O)NO)(C1)N2S(=O)(=O)c1cc(F)c(Oc2ccc(Cl)cc2)c(F)c1` (centres unmarked) [Example 24, 8-((4-(4-chlorophenoxy)-3,5-difluorophenyl)sulfonyl)-N-hydroxy-3-(morpholine-4-carbonyl)-3,8-diazabicyclo[3.2.1]octane-1-carboxamide], the IC50 in assay [1] and in assay [2] was 0.05 to 1 µM each time.

With `O=C(CCN1CCOCC1)N1CC2CCC(C(=O)NO)(C1)N2S(=O)(=O)c1cc(F)c(Oc2ccc(Cl)cc2)c(F)c1` (centres unmarked) [Example 25, 8-((4-(4-chlorophenoxy)-3,5-difluorophenyl)sulfonyl)-N-hydroxy-3-(3-morpholinopropanoyl)-3,8-diazabicyclo[3.2.1]octane-1-carboxamide], the IC50 in assay [1] and in assay [2] was 0.05 to 1 µM throughout.

In the case of `COCCOC(=O)N1C[C@H]2CC[C@@](C(=O)NO)(C1)N2S(=O)(=O)c1ccc(Oc2ccc(F)cc2)c(F)c1` [Example 30, 2-methoxyethyl (1S,5R)-8-((3-fluoro-4-(4-fluorophenoxy)phenyl)sulfonyl)-1-(hydroxycarbamoyl)-3,8-diazabicyclo[3.2.1]octane-3-carboxylate], the IC50 in assay [1] and in assay [2] was 0.05 to 1 µM in each case.

`COCCOC(=O)N1C[C@@H]2CC[C@](C(=O)NO)(C1)N2S(=O)(=O)c1ccc(Oc2ccc(F)cc2)c(F)c1` [Example 31, 2-methoxyethyl (1R,5S)-8-((3-fluoro-4-(4-fluorophenoxy)phenyl)sulfonyl)-1-(hydroxycarbamoyl)-3,8-diazabicyclo[3.2.1]octane-3-carboxylate]: the IC50 in assay [1] is under 0.05 µM; in assay [2], 0.05 to 1 µM.

In the case of `O=C(NO)C12CCC(CNC1)N2S(=O)(=O)c1cc(F)c(Oc2ccc(Cl)cc2)c(F)c1` (centres unmarked) [Example 32, 8-((4-(4-chlorophenoxy)-3,5-difluorophenyl)sulfonyl)-N-hydroxy-3,8-diazabicyclo[3.2.1]octane-1-carboxamide], the IC50 in assay [1] was 0.05 to 1 µM; in assay [2] it was 1 to 10 µM.

On to `COCCOC(=O)N1CC2CCC(C(=O)NO)(C1)N2C(=O)c1cc(F)c(Oc2ccc(Cl)cc2)c(F)c1` (centres unmarked) [Example 34, 2-methoxyethyl 8-(4-(4-chlorophenoxy)-3,5-difluorobenzoyl)-1-(hydroxycarbamoyl)-3,8-diazabicyclo[3.2.1]octane-3-carboxylate], for which the IC50 in assay [1], in assay [2] and in assay [3] was over 10 µM throughout.
